# pEC50: −log10 of the molar value. Read-outs that look alike come from different tables or passages of the source.
# System: AMPA-R
# Assay: Whole-cell patch clamp recording using rat primary hippocampal neurons
# Format: cell-based
# Parameters: key to Single effect on AMPA-R currents: -: No effect or slight effect; +: Potent; ++: Very potent
# Settings: for Single effect on AMPA-R currents: summary grade
# Method: Whole-cell patch clamp recording using primary neurons between 11 and 20 days in vitro was performed as previously described. Patch electrodes with tip resistances ranging from 3 to 5 MΩ were filled with an intracellular solution containing: 135 mM CsCl, 1 mM MgCl2, 10 mM HEPES, 10 mM EGTA, 4 mM MgATP, and 0.3 mM Na2GTP, adjusted to pH7.3 with CsOH (osmolality 275–295 mosm/L). The extracellular solution contained: 140 mM NaCl, 4 mM KCl, 2 mM CaCl2, 1 mM MgCl2, 10 mM HEPES, 5 mM NaHCO3, 10 mM D( +)-glucose, and 0.001 mM TTX, adjusted to pH7.4 with NaOH (osmolality 300–315 mosm/L). All experiments were carried out at room temperature. Neurons were voltage-clamped at − 80 mV. Steady-state inward currents were evoked by the application of AMPA and AMPA potentiator via Y-tube perfusion system. Signals were recorded using a Multiclamp 700B amplifier (Molecular Devices, LLC, Orleans Drive Sunnyvale, CA), digitized using a Digidata 1440A interface board, filtered between 2 kHz, sampled at 10 kHz, and analyzed with pClamp10 software. Details are described in the Supplementary Information.
# Whole-cell patch clamp technique was used for recording current from cultured rat hippocampal neurons between 11-20 days in vitro. Patch electrodes with tip resistances ranging from 3 to 5 MΩ were filled with an intracellular solution containing: 135 mM CsCl, 1 mM MgCl2, 10 mM HEPES, 10 mM EGTA, 4 mM Mg-ATP, 0.3 mM Na2-GTP, adjusted to pH7.3 with CsOH (osmolality 275-295 mosm/L). The extracellular solution contained: 140 mM NaCl, 4 mM KCl, 2 mM CaCl2, 1 mM MgCl2, 10 mM HEPES, 5 mM NaHCO3, 10 mM D(+)-glucose, and 0.001 mM TTX, adjusted to pH7.4 with NaOH (osmolality 300-315 mosm/L). All experiments were carried out at room temperature and performed using an Axopatch-1D amplifier with pCLAMP 9 software (Molecular Devices, LLC, Orleans Drive Sunnyvale, CA), low-pass filtered at 2 kHz, and stored on the computer hard-disk for off-line analysis. Neurons were voltage-clamped at –80mV. Steady-state inward currents were evoked by the application of AMPA and AMPA potentiator via Y-tube perfusion system. AMPA-R potentiator was applied 20 s prior to 10-s AMPA stimulus. The current at all drug concentrations tested was normalized by the steady-state current induced by 1 μM AMPA. In the absence of AMPA, the maximum current during 60-s application of AMPA-R potentiator was normalized by the steady-state current induced by 100 μM AMPA.
Compound,"pEC50 (single application, read-out: EC50, increase of AMPA-R-mediated currents)",Single effect on AMPA-R currents,Potency relative to LY451646 in potentiation of AMPA-elicited currents (times less potent) [times],"AMPA-R currents, Agonistic effect @30 μM (absence of AMPA, % of AMPA (100 μM)-induced steady-state response) [%]","pEC50 (in the presence of 1 μM AMPA, read-out: AMPA-R currents, Potentiation EC50)"
"Cc1onc(O)c1CC(N)C(=O)O (stereo not drawn) [AMPA, alpha-amino-3-hydroxy-5-methyl-4-isoxazole-propionic acid]",4.35,++,,,
"CC1=CN2CCS(=O)(=O)N=C2C(c2ccc(OC3CCCCC3)cc2)=N1 [TAK-653, 9-[4-(Cyclohexyloxy)phenyl]-7-methyl-3,4-dihydropyrazino[2,1-c][1,2,4]thiadiazine 2,2-dioxide]",,─,2.3,1.7,5.36

# — paper PMC8282797, “Strictly regulated agonist-dependent activation of AMPA-R is the key characteristic of TAK-653 for robust synaptic responses and cognitive improvement” (Scientific Reports, 2021)
